Experimental data from PubChem BioAssay (NCI).
“And” between values parts separate entries of the source, which are not always exact repeats. Equal values may be shown once.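 Protocol summary: plate cells (96-well), add compound at 5 concentrations, incubate 48 h, interpolate endpoints linearly. GI50 marks 50% less growth. TGI is the concentration that stops growth completely.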

Key:
Test in all cases: DTP human tumour cell line panel, 48 h
BT-549 breast = test system: BT-549 breast
SF-295 CNS = test system: SF-295 CNS
ACHN renal = test system: ACHN renal
SW-620 colon = test system: SW-620 colon
UACC-62 melanoma = test system: UACC-62 melanoma
TK-10 renal = test system: TK-10 renal
MCF7 breast = test system: MCF7 breast
NCI-H460 lung = test system: NCI-H460 lung

Structure (SMILES) | GI50 (BT-549 breast) | TGI (BT-549 breast) | GI50 (SF-295 CNS) | TGI (SF-295 CNS) | GI50 (ACHN renal) | TGI (ACHN renal) | GI50 (SW-620 colon) | TGI (SW-620 colon) | GI50 (UACC-62 melanoma) | TGI (UACC-62 melanoma) | GI50 (TK-10 renal) | TGI (TK-10 renal) | GI50 (MCF7 breast) | TGI (MCF7 breast) | GI50 (NCI-H460 lung) | TGI (NCI-H460 lung)
COCC1(CO)C(=O)C2CCN1CC2 (stereo not given) | 15.6 µM | 29.5 µM | > 100 µM | > 100 µM | 14.5 µM | 28.7 µM | 18.1 µM | 37.9 µM | 23 µM | > 56.1 µM | 16.8 µM | 31.1 µM | 19.1 µM | 52.6 µM | > 59 µM | > 100 µM
NC(=O)c1cc(S(=O)(=O)Nc2nnc(-c3ccccc3)c(-c3ccccc3)n2)c(SCc2ccccc2)cc1Cl | > 53.1 µM | > 89.7 µM | > 57.7 µM | > 100 µM | > 100 µM | > 100 µM | > 56.1 µM | > 100 µM | 71.1 µM | > 100 µM | > 100 µM | > 100 µM | 30.2 µM | > 66.4 µM | > 46.2 µM | > 83.1 µM
OCCCNc1nccc(-c2c(-c3ccc(F)cc3)nn3cc(C(F)(F)F)ccc23)n1 | > 25 µM | > 25 µM | 10.3 µM | > 25 µM | 9.23 µM | > 25 µM | > 25 µM | > 25 µM | 15.1 µM | > 25 µM | 15.9 µM | > 25 µM | 15.1 µM | > 25 µM | 9.12 µM | > 25 µM
O=C(CSC1CCc2ccccc21)N/N=C/c1ccccc1O (stereo not given) | 5.46 µM | 34.2 µM | 6.84 µM | > 100 µM | 2.67 µM | 20 µM | 5.66 µM | 81.4 µM | 2.82 µM | 13.6 µM | 6.1 µM | 73.8 µM | 2.89 µM | > 100 µM | 3.4 µM | 14.6 µM
O=C1NC(=NCCc2cccc(Cl)c2)S/C1=C\c1ccc2ncccc2c1 | > 25 µM | > 25 µM | > 25 µM | > 25 µM | > 25 µM | > 25 µM |  |  | > 25 µM | > 25 µM | > 25 µM | > 25 µM |  |  | > 25 µM | > 25 µM
COc1ccc(O)c(C(=O)c2ccc(C(=O)N[C@H]3CCCNC[C@@H]3NC(=O)c3ccncc3)cc2)c1F | 1.27 µM | 13.7 µM | 1.9 µM | > 18.9 µM | 11.5 µM | > 25 µM | > 25 µM | > 25 µM | 9.26 µM | > 25 µM | 0.684 µM | > 25 µM | 0.823 µM | > 25 µM | 10.5 µM | > 25 µM
C=C1C(=O)O[C@H]2[C@H]1CC/C(COC(=O)/C=C\C(=O)NCc1ccc(Cn3c(=O)sn(CCCC)c3=O)cc1)=C\CC[C@@]1(C)O[C@@H]21 | 0.909 µM | 2.23 µM | 1.73 µM | 3.24 µM | 0.299 µM | 0.994 µM | 0.201 µM | 0.443 µM | 1.2 µM | 2.53 µM | 0.61 µM | 1.78 µM | 0.365 µM | 2.03 µM | 1.27 µM | 2.73 µM
CCOC(=O)c1c(NC(=O)c2cccc(C(F)(F)F)c2)sc2c(CN(C)C)c(O)ccc12 | 12.2 µM | 26.9 µM | 2.83 µM | 9.2 µM | 4.49 µM | 15.8 µM | 2.31 µM | 5.53 µM | 1.71 µM | 3.17 µM | 4.25 µM | 15.8 µM | 2.81 µM | 12.1 µM | 2.19 µM | 4.76 µM
Cc1[nH]c(/C=C2\C(=O)Nc3ccccc32)c(C)c1CCC(=O)O | 22.5 µM | 73.9 µM and > 100 µM | 24.9 µM | > 100 µM |  | > 100 µM | 18.8 µM | 52.8 µM and 71.1 µM | 17.7 µM | 58.1 µM and 95.6 µM | 35 µM | > 100 µM | 23.9 µM | > 100 µM | 21.3 µM | 57 µM and > 100 µM
CCN1C(=O)N(CC)C2C1NN=c1s/c(=C3\C(=O)N(CC(C)(C)C)c4ccccc43)c(=O)n12 (stereo not given) | 2.62 µM | 9.65 µM | 2.84 µM | 12.6 µM | 4.04 µM | 18.1 µM | 4.75 µM | 21.9 µM | 3.06 µM | 15.8 µM | 15.3 µM | 48.5 µM | 1.62 µM | 18.7 µM | 3.39 µM | 13.4 µM
O=S(=O)(Nc1ccc(F)cc1F)c1ccc(-c2cnc(C3CC3)o2)cc1 | 0.597 µM | 24 µM | 0.359 µM | 5.53 µM | 1.62 µM | 31.2 µM | 0.395 µM | > 100 µM | 0.358 µM | 23.3 µM | 3.2 µM | 48.3 µM | 0.398 µM | > 55.9 µM | 0.404 µM | 28.2 µM
COC(=O)[C@@H](C)C[C@H](Cc1ccccc1)NC(=O)c1csc([C@@H](C[C@H](C(C)C)N(C)C(=O)[C@@H](NC(=O)[C@H]2CCCCN2C)C2CCCCC2)OC(C)=O)n1 | 0.000701 µM and 0.0025 µM |  | 0.000346 µM and 0.0025 µM | > 25 µM | 0.000746 µM and 0.0025 µM | > 25 µM | 0.000424 µM and 0.0025 µM | > 25 µM | 0.000354 µM and 0.0025 µM | > 25 µM | 0.0181 µM and 0.0025 µM | > 25 µM |  | > 25 µM | 0.000321 µM and 0.0025 µM | > 25 µM
NCCSc1nc(-c2ccccc2)c(-c2ccccc2)o1 |  | > 100 µM |  | > 100 µM |  | > 100 µM |  | > 100 µM |  | > 100 µM |  | > 100 µM |  | > 100 µM |  | > 100 µM
O=C(Nc1ccc(-n2ccc3c(NC(=O)c4ccccc4)nccc32)cc1)Nc1ccc(Cl)c(Cl)c1 | 3.08 µM | 17.9 µM | 0.877 µM | 3.18 µM | 1.22 µM | 4.29 µM | 1.08 µM | 2.51 µM | 1.23 µM | 2.83 µM | 1.82 µM | 5.29 µM | 1.1 µM | 2.37 µM | 0.358 µM | 1.78 µM
c1ccc2nc3c(nc2c1)sc1ccccc13 |  | > 100 µM |  | > 100 µM |  | 35.7 µM |  | > 100 µM |  | 79.3 µM |  | 39.3 µM |  | > 100 µM |  | 43.6 µM
Cc1nc2sc3c(c2c(=O)[nH]1)CCCC3 |  | > 100 µM |  | > 100 µM |  | > 100 µM |  | > 100 µM |  | > 100 µM |  | > 100 µM |  | > 100 µM |  | 86.1 µM
